Results as given in PubChem BioAssay AID1963427 (Molecular Pharmacology Branch, DTP, NCI, 2024).
Values joined by “and” are separate entries in the source; they are usually repeats but may differ in a detail not shown here. Equal values may be shown once.

Test system: 317291-083-R-J1-PDC complex spheroid growth
Assay: Anticancer human tumor 317291-083-R-J1-PDC patient-derived soft tissue sarcoma cell line growth inhibition [Asc]
Details: for viability, T/C: stronger effect = lower value
Description: Multicellular complex tumor spheroid response to apoptosis pathway targeting inhibitors Alrizomadlin, Pelcitoclax, and Dasminapant in combination with a variety of drugs and investigational agents in selected tumor cell lines
The MDM2 inhibitor alrizomadlin, the Bcl-2/Bcl-xL inhibitor pelcitoclax, and the IAPs inhibitor dasminapant were evaluated both individually and in combination with standard of care and investigational anticancer small molecules within a complex spheroid model of solid tumors. . Complex spheroids include a stromal component modeled by human endothelial cells (HUVEC) and fibroblasts modeled by human mesenchymal stem cells (MSCs). The concentration ranges selected for each drug and investigational agent were based upon clinically achievable concentrations if the clinical Cmax of the agent was known.
Compounds. The drugs and investigational agents: alrizomadlin (APG-115; NSC831270), pelcitoclax (APG-1252; NSC835773), dasminapant (APG-1387;NSC834197), TAK-243 (NSC785004), copanlisib (NSC809693), olaparib (NSC753686), talazoparib (NSC767125), cobimetinib (NSC 768068), eltanexor (KPT-8602, NSC 794443), abemaciclib (NSC 768073), sotorasib (NSC818433), adagrasib (NSC 831453), MRTX-1133 (NSC 836407), Iadademestat (ORY1001, NSC 806812), and RMC-4630 (NSC839698), were obtained from the NCI Developmental Therapeutics Program Chemical Repository. The FDA-approved anticancer drug set is available from the Developmental Therapeutics Program at https://dtp.cancer.gov/organization/dscb/obtaining/available plates.htm. […] The stock solutions were prepared in dimethyl sulfoxide (DMSO, Sigma-Aldrich, St. Louis, MO, cat. D2650) at 800-fold the tested concentration and stored at -70 degrees C prior to their use. All drugs and investigational agents were tested over a range starting from a high concentration at or near the clinical Cmax and decreasing in half-log increments. If the clinical Cmax for an agent had not been determined, the highest concentration tested was 10 microM.
The patient-derived cancer (PDC) cell lines include five colon adenocarcinomas: 186277-243-T-J2-PDC, 616215-338-R-J1-PDC, 439559-082-T-J2-PDC, 463943-066-T-J2-PDC, and 519858-162-T-J1-PDC; three pancreatic carcinomas: 323965-272-R-J2-PDC, 521955-158-R6-J3-PDC, and 521955-158-R2-J5-PDC; two uterine sarcomas: 327498-152-R-J2-PDC and 993429-296-R-J1-PDC; two rhabdomyosarcomas: 755483-174-R-J1-PDC and 772245-204-R-J1-PDC; two soft tissue sarcomas: 126254-015-R-J1-PDC and 494315-158-R-J1-PDC; two malignant fibrous histiocytomas: 317291-083-R-J1-PDC and 596521-263-R-J1-PDC; two breast carcinomas: 171881-019-R-J1-PDC and 885512-296-R-J2-PDC; and one ovarian carcinoma: 6556581-035-R-J-PDC were obtained from the NCI PDMR, (https://pdmr.cancer.gov). The established cell lines HSSY-2 synovial sarcoma (RRID:CVCL 8719), SYO-1 synovial sarcoma (RRID:CVCL_7146), MPNST malignant peripheral neural sheath tumor were obtained from the Sloan Kettering Institute. The following established cell lines were purchased from the American Type Culture Collection (ATCC, Manassas, VA), Sor the received from the NCI repository:, PANC-1 pancreatic carcinoma (CRL-1469, RRID:CVCL_0480), OVCAR-5 ovarian carcinoma (RRID:CVCL_1628), OVCAR-8 ovarian carcinoma (RRID:CVCL_1629), , MCF-7 breast carcinoma (CRL-12584, RRID:CVCL_0031), MDA-MB-231 breast carcinoma (CRL-12532, RRID:CVCL_0062), NCI-H1876 small cell lung carcinoma (CRL-5902, RRID:CVCL_1503), NCI-H510A small cell lung carcinoma (HTB-184, RRID:CVCL_1565), NCI-H1417 (CRL-5869, RRID:CVCL_1469), and NCI-H196 small cell lung carcinoma (CRL-5823, RRID:CVCL_1509). Dr. Peter Houghton (Greehey Children's Cancer Research Institute, University of Texas Health Science Center, San Antonio, TX) provided Rh-18 rhabdomyosarcoma (RRID:CVCL_1659). Pooled donor human umbilical vein endothelial cells (HUVEC, Lonza, cat. CC-2519) and human mesenchymal stem cells (hMSC, Lonza, cat. PT-2501) were purchased from Lonza (Walkersville, MD).
Cell Culture. […]
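Further: compound exposure lasted seven days after spheroids formed for three days.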
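Wherever viability, T/C is given: 100% = DMSO vehicle control wells.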

IC50 (curve of compound) | SMILES | viability, T/C (compound 0.0316 µM) | viability, T/C (compound 0.1 µM) | viability, T/C (compound 0.316 µM) | viability, T/C (compound 1 µM) | viability, T/C (compound 3.16 µM) | viability, T/C (compound 10 µM) | viability, T/C (compound 0.00316 µM) | viability, T/C (compound 0.01 µM) | further results
> 10 µM | C#Cc1c(F)ccc2cc(O)cc(-c3ncc4c(N5CC6CCC(C5)N6)nc(OCC56CCCN5CC(F)C6)nc4c3F)c12 (configuration not stated) | 86.9% and 91% and 105% | 84.9% and 99.4% and 85.2% | 87.6% and 108% and 105% | 97.5% and 103% and 102% | 95.8% and 90.8% and 94.6% | 56.1% and 72.7% and 85.2% |  |  | 
> 10 µM | C=CC(=O)N1CCN(c2nc(=O)n(-c3c(C)ccnc3C(C)C)c3nc(-c4c(O)cccc4F)c(F)cc23)C(C)C1 (configuration not stated) | 94.7% and 115% and 91.3% | 116% and 91.4% and 84% | 97.3% and 95.1% and 99.8% | 117% and 90.1% and 95.4% | 92.4% and 89.8% and 78.8% | 61% and 73.1% and 78% |  |  | 
> 1 µM | CCN1CCN(Cc2ccc(Nc3ncc(F)c(-c4cc(F)c5nc(C)n(C(C)C)c5c4)n3)nc2)CC1 | 99.1% and 98.7% and 102% | 101% and 97.3% and 89.7% | 72.4% and 84.1% and 82.4% | 49.5% and 82.8% and 50.7% |  |  | 91.8% and 94.4% and 104% | 93.8% and 95.1% (2×) | 
0.149 µM and 0.158 µM and 0.103 µM | COc1c(OCCCN2CCOCC2)ccc2c3n(c(=NC(=O)c4cnc(N)nc4)nc12)CCN3 | 73.5% and 93.8% and 80.6% | 49.4% and 56.9% and 59.9% | 25.9% and 37.9% and 33.4% | 12.6% and 21.9% and 15.6% |  |  | 92% and 97.6% and 96.2% | 90.5% and 100% and 93.7% | 
8.07 µM and 9.24 µM and 2.97 µM | O=C(c1cc(Cc2n[nH]c(=O)c3ccccc23)ccc1F)N1CCN(C(=O)C2CC2)CC1 | 106% and 111% and 91.2% | 76.1% and 100% and 97% | 110% and 87.8% and 93.8% | 83% and 101% and 88.7% | 82.7% and 84.3% and 47.8% | 42.5% and 46.9% and 32.5% |  |  | 

Continued, compound first:

SMILES | IC50 (curve of compound) | viability, T/C (compound 0.0316 µM) | viability, T/C (compound 0.1 µM) | viability, T/C (compound 0.316 µM) | viability, T/C (compound 1 µM) | viability, T/C (compound 3.16 µM) | viability, T/C (compound 10 µM) | viability, T/C (compound 0.00316 µM) | viability, T/C (compound 0.01 µM) | further results
C=C(F)C(=O)N1CCN(c2nc(OCC3CCCN3C)nc3c2CCN(c2cccc4cccc(Cl)c24)C3)CC1CC#N (configuration not stated) | 2.89 µM and 2.46 µM and 3.47 µM | 83.4% and 107% (2×) | 76.7% and 88.1% and 99.1% | 93.2% and 95.1% and 113% | 89% and 89.6% and 87.7% | 47% and 39% and 55.3% | 0.16% and 0.29% and 0.23% |  |  | 
CNC(C)C(=O)NC1CN(S(=O)(=O)c2cccc(S(=O)(=O)N3CCC4CCC(C(=O)NC(c5ccccc5)c5ccccc5)N4C(=O)C(NC(=O)C(C)NC)C3)c2)CCC2CCC(C(=O)NC(c3ccccc3)c3ccccc3)N2C1=O (configuration not stated) | 0.254 µM and 0.416 µM | 72.8% [middle of 9 runs] |  |  |  |  |  |  |  | 
Cc1c(S(C)(=O)=O)c(-c2cc(F)cc(N3CCN(c4ccc(NS(=O)(=O)c5ccc(NC(CCN6CCC(C(=O)OCCCP(=O)(O)O)CC6)CSc6ccccc6)c(S(=O)(=O)C(F)(F)F)c5)cc4)CC3)c2)c(-c2ccc(Cl)cc2)n1C(C)C (configuration not stated) |  | 98% [middle of 7 runs] |  | 93.2% [middle of 7 runs] |  | 81% [middle of 7 runs] |  |  |  | IC50 (compound alone, run of 11/07/2022): > 10 µM
Cc1nc(N2CCC3(CC2)COC(C)C3N)c(CO)nc1Sc1ccnc(N)c1Cl (configuration not stated) | 2 µM and > 3 µM |  |  |  |  |  |  |  |  | viability, T/C (compound 0.00949 µM): 108% and 113% and 102%; viability, T/C (compound 0.03 µM): 83.1% and 90.6% and 95.5%; viability, T/C (compound 0.0949 µM): 79.3% and 103% and 99.2%; viability, T/C (compound 0.3 µM): 73.6% and 89.4% and 77.2%; viability, T/C (compound 0.949 µM): 59.2% and 66.4% and 64.5%; viability, T/C (compound 3 µM): 43.2% and 58.9% and 51%
Cn1ncnc1[C@H]1c2n[nH]c(=O)c3cc(F)cc(c23)N[C@@H]1c1ccc(F)cc1 | > 0.1 µM | 68.7% and 96.5% and 83% | 70.7% and 81% and 56.7% |  |  |  |  | 80.5% and 107% and 99% | 89.2% and 87.3% and 89% | viability, T/C (compound 0.000316 µM): 99% and 111% and 93.9%; viability, T/C (compound 0.001 µM): 81.6% and 81.9% and 107%
NC(=O)C(=Cn1cnc(-c2cc(C(F)(F)F)cc(C(F)(F)F)c2)n1)c1cncnc1 |  |  |  |  |  |  |  |  |  | viability, T/C (compound 0.000949 µM): 92.5% and 89.6% and 23.9%; viability, T/C (compound 0.003 µM): 88.1% and 74.5% and 25.9%; viability, T/C (compound 0.00949 µM): 92.4% and 72% and 36.3%; viability, T/C (compound 0.03 µM): 45.8% and 39.8% and 16%; viability, T/C (compound 0.0949 µM): 6.6% and 6.29% and 7.34%; viability, T/C (compound 0.3 µM): 3.75% and 1.91% and 3.91%
NC1CCC(NC2CC2c2ccccc2)CC1 (configuration not stated) | > 0.1 µM | 91.5% and 112% and 96.1% | 97.7% and 80.4% and 90% |  |  |  |  | 84.8% and 99.5% and 109% | 95.1% and 93.7% and 104% | viability, T/C (compound 0.000316 µM): 107% and 84.4% and 104%; viability, T/C (compound 0.001 µM): 97.8% and 80.7% and 96.1%
O=C(c1ccc(F)c(F)c1Nc1ccc(I)cc1F)N1CC(O)([C@@H]2CCCCN2)C1 | 0.462 µM and 0.504 µM and 0.599 µM | 109% and 88.6% and 93.6% | 94.1% and 119% and 117% | 65.2% and 71.6% and 81.1% | 19.6% and 18.1% and 25% |  |  | 97% and 91.5% and 98.6% | 102% and 91.8% and 91% | 
